Experimental data reported in patent publication US7015239B2, “Fungicide for plants” (Valent BioSciences, Inc., priority 2003, dated 2006).

Columns and labels:
[1] = tested on: Phaseolus vulgaris (Bush bean cv. Blue Lake 274) leaves; assay: Detached bean leaf bioassay, phytotoxicity rating; format: in vivo
Experimental: (§1) Detached Bean Leaf Bioassay
(§2) Compound solution: Compound solutions were prepared by diluting compound stock solutions (1.0% w/v compound in DMSO) to 200 ppm with 0.01% w/v Triton X-100.
(§3) Plant material: Middle trifoliate leaves of greenhouse grown Phaseolus vulgaris (Bush bean cv. Blue Lake 274) were excised and placed on a plastic grid above a tray containing moist towels.
Treatment method: One half of the adaxial surface of the leaf was treated with the compound solution (100:L) using a 3 cm Bacti Cell Spreader. A blank consisted of 0.01% w/v Triton X-100. A commercial fungicide control (200 ppm diluted with water) consisted of Scala. After the solutions dried, the trays containing the leaves were covered and held one day in a growth chamber (22 C). The adaxial surfaces of the leaves were then inoculated with 5–60:L droplets of Botrytis cinerea spore solution.
Phytotoxicity ratings: Phytotoxicity was rated as 0=no phytotoxicity, l=slight phytotoxicity, 2=moderate phytotoxicity, or 3=excessive phytotoxicity (Table 2).

Sclerotinia sclerotiorum = assay: Contact evaluation (microtiter plate); format: cell-based; conditions: Sclerotinia sclerotionum
Experimental: (§4) Compound solution: Contact evaluations were conducted to determine the anti-fungal activity of each compound against Botrytis cinerea, Sclerotinia sclerotiorum, Pythium aphanidermatum, Rhizoctonia solani, Cercospora arachidicola, Mycosphaerella fijiensis, and Monilinia laxa. Five milligrams of each compound were dissolved in 0.5 milliliter of DMSO for a compound stock solution of 1.0% w/v. Compound stock solutions were serial diluted with DMSO to 20, 10, and 2 ppm final well concentration.
(§5) Fungi preparation: Botrytis cinerea spores were taken from 6-week-old cultures grown at 22C on full strength potato dextrous agar (PDA) plates. Sclerotinia sclerotiorum, Pythium aphanidermatum, Rhizoctonia solani, and Monilinia laxa mycelia were taken from 4- to 10-day-old shake flask cultures grown at room temperature on full strength potato dextrous broth (PDB). Cercospora arachidicola mycelia were taken from 10- to 14-day-old shake flask cultures grown at room temperature on a full strength PDB amended with peanut oil. Mycosphaerella fijiensis mycelia were taken from 10- to 14-day-old shake flask cultures grown at room temperature on V8 juice broth. Sclerotinia sclerotiorum, Pythium aphanidermatum, Rhizoctonia solani, Cercospora arachidicola, and Mycosphaerella fijiensis mycelia (0.4 g mycelia) were blended for 45 seconds in 20 mL sterile de-ionized water. Monilinia laxa mycelia (1 g mycelia) was blended for 45 seconds in 30 mL of sterile de-ionized water. Botrytis cinerea spores were diluted with quarter strength PDB to 1×10^5 spores/mL final well concentration. All mycelia were diluted in water (1:5 mycelia:water) before distributing into the wells.
(§6) Microtiter plate preparation: Compound solution (10:L), quarter strength PDB (900:L) and fungi preparation (100:L) were sequentially distributed into 48-well microtiter plates (n=3 replications/compound/rate). A blank consisted of quarter strength PDB and fungi preparation. Commercial fungicide controls (100 ppm diluted with water) consisted of Scala for Botrytis cinerea, Dithane F-45 for Mycosphaerella fijiensis, and Benlate for Sclerotinia sclerotiorum, Pythium aphanidermatum, Rhizoctonia solani, Cercospora arachidicola, and Monilinia laxa. Plates were shaken in a circular rotator at room temperature for 20 minutes, then incubated at 25 C for 24 to 72 hours, depending on the pathogen.
(§7) Fungal control ratings: Fungal growth in wells containing the compounds were compared to the positive control and fungal inhibition was rated as full, partial, or none. Final readings were the average of the three wells (Table 1).

Cercospora arachidicola = assay: Contact evaluation (microtiter plate); format: cell-based
Experimental: as §4, §5, §6, §7

Monilinia laxa = assay: Contact evaluation (microtiter plate); format: cell-based
Experimental: as §4, §5, §6, §7

Mycosphaerella fijiensis = assay: Contact evaluation (microtiter plate); format: cell-based
Experimental: as §4, §5, §6, §7

Pythium aphanidermatum = assay: Contact evaluation (microtiter plate); format: cell-based
Experimental: as §4, §5, §6, §7

Rhizoctonia solani = assay: Contact evaluation (microtiter plate); format: cell-based; conditions: Rhizoctinia solani
Experimental: as §4, §5, §6, §7

Botrytis cinerea [2] = assay: Contact evaluation (microtiter plate); format: cell-based
Experimental: as §4, §5, §6, §7

Botrytis cinerea [3] = assay: Detached bean leaf bioassay, fungal control; format: in vivo; conditions: three days after inoculation, 100 minus percent necrotic area
Experimental: as §1, §2
Spore solution preparation: Botrytis cinerea spores were taken from 6-week-old cultures grown at 22 C on full strength potato dextrous agar (PDA) plates and harvested in 1:16 frozen orange juice concentrate:water. Botrytis cinerea spore solutions were prepared by diluting spore cultures to 5×10^4 spores/mL with 1:16 frozen orange juice concentrate:water.
as §3
Treatment method: One half of the adaxial surface of the leaf was treated with the compound solution (100:L) using a 3 cm Bacti Cell Spreader. A blank consisted of 0.01% w/v Triton X-100. A commercial fungicide control (200 ppm diluted with water) consisted of Scala. […]
Fungal control rating: Three days after inoculation with Botrytis, the percent necrotic area under the inoculation droplet was determined. Since the areas under the blank (0.01% w/v Triton X-100) were 100% infected, fungal control was expressed as 100 minus the percent necrotic area, and thus 0% infected is 100% fungal control (n=3 leaves/compound, 5 inoculation droplets/leaf, Table 2).

For `Cc1ccc(-c2cc(-c3ccc(C)cc3)[n+](-c3ccccc3)c(-c3cccc(C)c3)c2)cc1.[O-][Cl+3]([O-])([O-])O` [formula I], the “Phytotoxity (200 ppm)” value [1] was “Slight”, the “Control of fungi (full, partial, none)” value (Sclerotinia sclerotiorum; fungicide rate 2 ppm) was “Full” and the “Control of fungi (full, partial, none)” value (Sclerotinia sclerotiorum; fungicide rate 10 ppm) was “Full”. The “Control of fungi (full, partial, none)” value (Sclerotinia sclerotiorum; fungicide rate 20 ppm) was “Full”, the “Control of fungi (full, partial, none)” value (Cercospora arachidicola; fungicide rate 2 ppm) was “None” and the “Control of fungi (full, partial, none)” value (Cercospora arachidicola; fungicide rate 10 ppm) was “Full”. The “Control of fungi (full, partial, none)” value (Cercospora arachidicola; fungicide rate 20 ppm) was “Full”, the “Control of fungi (full, partial, none)” value (Monilinia laxa; fungicide rate 2 ppm) was “Full” and the “Control of fungi (full, partial, none)” value (Monilinia laxa; fungicide rate 10 ppm) was “Full”. For the same compound, the “Control of fungi (full, partial, none)” value (Monilinia laxa; fungicide rate 20 ppm) was “Full”, the “Control of fungi (full, partial, none)” value (Mycosphaerella fijiensis; fungicide rate 2 ppm) was “Full” and the “Control of fungi (full, partial, none)” value (Mycosphaerella fijiensis; fungicide rate 10 ppm) was “Full”. The “Control of fungi (full, partial, none)” value (Mycosphaerella fijiensis; fungicide rate 20 ppm) was “Full”, the “Control of fungi (full, partial, none)” value (Pythium aphanidermatum; fungicide rate 2 ppm) was “Full” and the “Control of fungi (full, partial, none)” value (Pythium aphanidermatum; fungicide rate 10 ppm) was “Full”. For the same compound, the “Control of fungi (full, partial, none)” value (Pythium aphanidermatum; fungicide rate 20 ppm) was “Full”, the “Control of fungi (full, partial, none)” value (Rhizoctonia solani; fungicide rate 2 ppm) was “None” and the “Control of fungi (full, partial, none)” value (Rhizoctonia solani; fungicide rate 10 ppm) was “Full”. The “Control of fungi (full, partial, none)” value (Rhizoctonia solani; fungicide rate 20 ppm) was “Full”, the “Control of fungi (full, partial, none)” value (Botrytis cinerea [2]; fungicide rate 2 ppm) was “Partial” and the “Control of fungi (full, partial, none)” value (Botrytis cinerea [2]; fungicide rate 10 ppm) was “Full”. For the same compound, the “Control of fungi (full, partial, none)” value (Botrytis cinerea [2]; fungicide rate 20 ppm) was “Full” and the “Botrytis cinerea control (200 ppm)” value (Botrytis cinerea [3]) was 93%.
